Data from patent publication US8119616B2, “Formulation of quinazoline based EGFR inhibitors containing a zinc binding moiety” (Curis, Inc., priority 2007, dated 2012).

How the values were obtained:
[1] = male, CD-1, mouse, in vivo, ip, 7 days
Procedure: 7-day-multiple dosing MTD in mice • a. CD-1 mice, male, 24-26 gram • b. Dosing at 0, 50, 100, 200 mg/kg/d ip • c. 6 mice per group • d. Blood and organs will be collected 2 hr after last dosing on Day 7 for hematology
Stock solution is diluted with 30% CAPTISOL before use.

Lung_H460 = assay: Cell proliferation assay (ATPlite); assay type: cell-based; settings: 72 hours, 0.5% fetal bovine serum
Procedure: (§1) A representative number of compounds were assayed against several different cell lines using the cell proliferation assay:
(§2) Cell Proliferation Assay:
(§3) Cancer cell lines were plated at 5,000 to 10,000 per well in 96-well flatted bottomed plates with various concentration of compounds. The cells were incubated with compounds for 72 hours in the presence of 0.5% of fetal bovine serum. Growth inhibition was accessed by adenosine triphosphate (ATP) content assay using Perkin Elmer ATPlite kit. ATPlite is an ATP monitoring system based on firefly luciferase. Briefly, 25 μl of mammalian cell lysis solution was added to 50 μl of phenol red-free culture medium per well to lyse the cells and stabilize the ATP. 25 μl of substrate solution was then added to the well and subsequently the luminescence was measured.

Pancreas_CFPAC = assay: Cell proliferation assay (ATPlite); assay type: cell-based; settings: 72 hours, 0.5% fetal bovine serum
Procedure: as §1, §2, §3

Lung_H2122 = assay: Cell proliferation assay (ATPlite); assay type: cell-based; settings: 72 hours, 0.5% fetal bovine serum
Procedure: as §1, §2, §3

Pancreas_PANC1 = assay: Cell proliferation assay (ATPlite); assay type: cell-based; settings: 72 hours, 0.5% fetal bovine serum
Procedure: as §1, §2, §3

Lung_H358 = assay: Cell proliferation assay (ATPlite); assay type: cell-based; settings: 72 hours, 0.5% fetal bovine serum
Procedure: as §1, §2, §3

Prostate_22RV1 = assay: Cell proliferation assay (ATPlite); assay type: cell-based; settings: 72 hours, 0.5% fetal bovine serum
Procedure: as §1, §2, §3

Pancreas_BxPC3 = assay: Cell proliferation assay (ATPlite); assay type: cell-based; settings: 72 hours, 0.5% fetal bovine serum
Procedure: as §1, §2, §3

Breast_MDAMB468 = assay: Cell proliferation assay (ATPlite); assay type: cell-based; settings: 72 hours, 0.5% fetal bovine serum
Procedure: as §1, §2, §3

Pancreas_MiaPaCa2 = assay: Cell proliferation assay (ATPlite); assay type: cell-based; settings: 72 hours, 0.5% fetal bovine serum
Procedure: as §1, §2, §3

Breast_MCF7 = assay: Cell proliferation assay (ATPlite); assay type: cell-based; settings: 72 hours, 0.5% fetal bovine serum
Procedure: as §1, §2, §3

Pancreas_HPAC = assay: Cell proliferation assay (ATPlite); assay type: cell-based; settings: 72 hours, 0.5% fetal bovine serum
Procedure: as §1, §2, §3

Lung_H292 = assay: Cell proliferation assay (ATPlite); assay type: cell-based; settings: 72 hours, 0.5% fetal bovine serum
Procedure: as §1, §2, §3

Pancreas_Capan1 = assay: Cell proliferation assay (ATPlite); assay type: cell-based; settings: 72 hours, 0.5% fetal bovine serum
Procedure: as §1, §2, §3

Prostate_PC3 = assay: Cell proliferation assay (ATPlite); assay type: cell-based; settings: 72 hours, 0.5% fetal bovine serum
Procedure: as §1, §2, §3

Breast_SkBr3 = assay: Cell proliferation assay (ATPlite); assay type: cell-based; settings: 72 hours, 0.5% fetal bovine serum
Procedure: as §1, §2, §3

Colon_HCT116 = assay: Cell proliferation assay (ATPlite); assay type: cell-based; settings: 72 hours, 0.5% fetal bovine serum
Procedure: as §1, §2, §3

Epidermoid_A431 = assay: Cell proliferation assay (ATPlite); assay type: cell-based; settings: 72 hours, 0.5% fetal bovine serum
Procedure: as §1, §2, §3

C#Cc1cccc(Nc2ncnc3cc(OC)c(OCCCCCCC(=O)NO)cc23)c1 [Compound 12, 7-(4-(3-ethynylphenylamino)-7-methoxyquinazolin-6-yloxy)-N-hydroxyheptanamide]
< 100 nM: IC50 (Pancreas_BxPC3) | IC50 (Breast_MDAMB468) | IC50 (Breast_MCF7) | IC50 (Lung_H292)
up to 100 mg/kg: dose that did not result in a significant change in body weight [1]
1000 to 10000 nM: IC50 (Pancreas_HPAC)
100 to 1000 nM: IC50 (Lung_H460) | IC50 (Pancreas_CFPAC) | IC50 (Lung_H2122) | IC50 (Pancreas_PANC1) | IC50 (Lung_H358) | IC50 (Prostate_22RV1) | IC50 (Pancreas_MiaPaCa2) | IC50 (Pancreas_Capan1) | IC50 (Prostate_PC3) | IC50 (Breast_SkBr3) | IC50 (Colon_HCT116) | IC50 (Epidermoid_A431)
